# Data from PMC11995724, “Antibiotic target discovery by integrated phenotypic and activity-based profiling of electrophilic fragments” (Cell chemical biology, 2025).
# Structures can show the parent of a compound that is named as a salt.
# Test: in vitro
# Settings: human, hek293t cells
smiles,measurement,value
"Cc1nn(C)c(N2CCCN(C)CC2)c1CNC(=O)C(C)Cl (stereo not shown) [6-N17, 2-chloro-N-{[1,3-dimethyl-5-(4-methyl-1,4-diazepan-1-yl)-1H-pyrazol-4-yl]methyl}propanamide]","viability at 48 h, 25 µM",107%
"CC(Cl)C(=O)N1C2CCC1CC1(C2)CC1(F)F (stereo not shown) [6-N18, 2-chloro-1-{2',2'-difluoro-8-azaspiro[bicyclo[3.2.1]octane-3,1'-cyclopropan]-8-yl}propan-1-one]","viability at 48 h, 25 µM",112%
"CC(Cl)C(=O)N1CCN(Cc2ccc(C(F)(F)F)cc2)C(=O)C1 (stereo not shown) [6-N19, 4-(2-chloropropanoyl)-1-{[4-(trifluoromethyl)phenyl]methyl}piperazin-2-one]","viability at 48 h, 25 µM",99.6%
"CC(Cl)C(=O)N1CCN(c2cc(-c3ccccc3F)n[nH]2)CC1 (stereo not shown) [6-N20, 2-chloro-1-{4-[3-(2-fluorophenyl)-1H-pyrazol-5-yl]piperazin-1-yl}propan-1-one]","viability at 48 h, 25 µM",86.2%
"CC(Cl)C(=O)N1CCCC(c2nc(-c3cccc(F)c3)no2)C1 (stereo not shown) [6-N21, 2-chloro-1-{3-[3-(3-fluorophenyl)-1,2,4-oxadiazol-5-yl]piperidin-1-yl}propan-1-one]","viability at 48 h, 25 µM",90.2%
"CC(Cl)C(=O)N(c1cccc(C#N)c1)C1CCC1 (stereo not shown) [6-N22, 2-chloro-N-(3-cyanophenyl)-N-cyclobutylpropanamide]","viability at 48 h, 25 µM",90.1%
"COc1ccc(S(N)(=O)=O)cc1NC(=O)CCl [6-O03, 2-chloro-N-(2-methoxy-5-sulfamoylphenyl)acetamide]","viability at 48 h, 25 µM",0.606%
"COc1ccc(OC)c(NC(=O)CCl)c1 [6-O04, 2-chloro-N-(2,5-dimethoxyphenyl)acetamide]","viability at 48 h, 25 µM",0.314%
"O=C(CCl)NCCCC1CCCCC1 [6-O05, 2-chloro-N-(3-cyclohexylpropyl)acetamide]","viability at 48 h, 25 µM",45.7%
"CC1CCCCC1OCCNC(=O)CCl (stereo not shown) [6-O06, 2-chloro-N-{2-[(2-methylcyclohexyl)oxy]ethyl}acetamide]","viability at 48 h, 25 µM",112%
"Cc1cccc(N(Cc2ccccc2)C(=O)CCl)c1 [6-O07, N-benzyl-2-chloro-N-(3-methylphenyl)acetamide]","viability at 48 h, 25 µM",0.964%
"O=C(CCl)Nc1ccnn1Cc1ccccc1Cl [6-O08, 2-chloro-N-{1-[(2-chlorophenyl)methyl]-1H-pyrazol-5-yl}acetamide]","viability at 48 h, 25 µM",0.422%
"CCOc1ccc(NC(=O)C(C)Cl)cc1 (stereo not shown) [6-O09, 2-chloro-N-(4-ethoxyphenyl)propanamide]","viability at 48 h, 25 µM",89.5%
"CCC(NC(=O)CCl)c1ccc(Cl)cc1 (stereo not shown) [6-O10, 2-chloro-N-[1-(4-chlorophenyl)propyl]acetamide]","viability at 48 h, 25 µM",1.9%
"O=C(O)C1CCN(C(=O)CCl)CC1 [6-O11, 1-(2-chloroacetyl)piperidine-4-carboxylic acid]","viability at 48 h, 25 µM",113%
"CS(=O)(=O)c1ccc(CNC(=O)CCl)cc1 [6-O12, 2-chloro-N-[(4-methanesulfonylphenyl)methyl]acetamide]","viability at 48 h, 25 µM",1.69%
"CC(Cl)C(=O)Nc1ccc(OCc2ccccc2)cc1 (stereo not shown) [6-O13, N-[4-(benzyloxy)phenyl]-2-chloropropanamide]","viability at 48 h, 25 µM",99.7%
"O=C(CCl)Nc1ccc(S(=O)(=O)c2ccc(F)cc2)cc1 [6-O14, 2-chloro-N-[4-(4-fluorobenzenesulfonyl)phenyl]acetamide]","viability at 48 h, 25 µM",0.578%
"CC(Cl)C(=O)NCc1cccc(Cn2cnc3ccccc32)c1 (stereo not shown) [6-O16, N-({3-[(1H-1,3-benzodiazol-1-yl)methyl]phenyl}methyl)-2-chloropropanamide]","viability at 48 h, 25 µM",116%
"O=C(CCl)Nc1cccnn1 [6-O17, 2-chloro-N-(pyridazin-3-yl)acetamide hydrochloride]","viability at 48 h, 25 µM",118%
"O=C(CCl)NC(c1ccccc1)C1CCCC1 (stereo not shown) [6-O18, 2-chloro-N-[cyclopentyl(phenyl)methyl]acetamide]","viability at 48 h, 25 µM",8.29%
"O=C(CCl)NC1CCCS(=O)(=O)c2ccccc21 (stereo not shown) [6-O19, 2-chloro-N-(1,1-dioxo-2,3,4,5-tetrahydro-1lambda6-benzothiepin-5-yl)acetamide]","viability at 48 h, 25 µM",5.88%
